{
  "source": "patent US10555987B2",
  "about": "“GHRH agonists for the treatment of ischemic disorders” (UNIVERSITY OF MIAMI, priority 2012, dated 2020)",
  "key": {"[1]": {"test_system": "superfused rat pituitary cells", "test": "GH release in superfused rat pituitary cell system (Table 4)", "type": "cell-based", "conditions": "1 nM; for GH Response (ng/ml), column 1: replicate 1; for GH Response (ng/ml), column 2: replicate 2; for GH Response (ng/ml), column 3: replicate 3", "protocol": "Growth hormone releasing activity. Growth hormone releasing was assayed by using a superfused rat pituitary cell system as described in S. Vigh and A. V. Schally, Peptides 5, Suppl: 241-347, 1984. The new synthetic peptide analog of hGHRH P20356 and JI-38 (as control) were administered for 3 minutes (1 mL perfusate) at 1 nM concentration as shown below. Fractions of 1 ml are collected and the GH content in each was determined by ELISA.\nPituitary cells from 2 male rats were used for each channel of the superfusion system. The cells were exposed to 3-min pulses of the new GHRH agonists or to JI-38 as standard every 30 min. Outflowing samples of each channel (1 ml) were collected every 3 min, and GH levels were determined by ELISA."}, "GH release [2]": {"test_system": "GH release", "test": "GH releasing potency in vivo, intravenous administration (Example 14, Table 13)", "set-up": "species or system rat", "conditions": "i.v.", "in_short": "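Potency is expressed relative to GHRH(1-29)NH2 and JI-38 (each = 1), via equivalent GHRH(1-29)NH2 dose read from a standard curve. Peptides in 5% mannitol given i.v. or s.c. to anaesthetised male Sprague-Dawley rats (200-250 g); serum GH measured by ELISA at selected times.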"}, "GH release [3]": {"test_system": "GH release", "test": "In vivo endocrine activity, GH release after intravenous administration (Table 8)", "conditions": "rat, i.v. injection"}, "GHRH receptor": {"molecular_target": "T1, GHRH receptor (Homo sapiens, UniProt Q02643)", "T1 sequence (Q02643 23-423)": "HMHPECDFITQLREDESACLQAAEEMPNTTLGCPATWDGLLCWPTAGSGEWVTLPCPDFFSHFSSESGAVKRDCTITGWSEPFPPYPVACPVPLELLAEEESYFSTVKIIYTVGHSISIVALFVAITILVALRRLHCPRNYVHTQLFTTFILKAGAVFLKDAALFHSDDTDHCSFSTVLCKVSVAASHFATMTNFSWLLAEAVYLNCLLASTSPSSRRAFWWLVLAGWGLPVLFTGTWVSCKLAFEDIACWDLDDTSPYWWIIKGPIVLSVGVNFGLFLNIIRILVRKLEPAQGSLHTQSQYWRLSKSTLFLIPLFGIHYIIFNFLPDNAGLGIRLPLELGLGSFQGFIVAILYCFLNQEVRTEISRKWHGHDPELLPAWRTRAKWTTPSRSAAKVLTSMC", "test": "GHRH receptor binding, competition with 125I-labeled JV-1-42, human pituitary membrane homogenates (Table 5)", "set-up": "Normal human pituitaries were purchased from the National Hormone and Peptide Program; tissue National Hormone and Peptide Program (A.F. Parlow, Harbor-UCLA Medical Center, Torrance, Calif.); host or cells: normal human pituitary, membrane fraction"}, "[4]": {"test_system": "nitrosoglutathione reductase-/- (GSNOR-/-) mesenchymal stem cells (MSCs)", "test": "Tube formation of GSNOR-/- mesenchymal stem cells in Matrigel", "type": "cell-based, mouse", "conditions": "GSNOR-/- MSCs on Matrigel, 6 to 24 hours", "protocol": "Bone marrow-derived MSCs isolated from wildtype and GSNOR^−/− mice were grown in endothelial growth media (EGM-2, Lonza Biotech) for a period of 1 week. Cells were harvested by brief trypsinization and plated in 24-well culture dishes (5×10^4 cells/well) pre-coated with 300 μl of Matrigel (BD Biosciences). Cells were incubated in endothelial basal media (Lonza Biotech) supplemented with 0.1% bovine serum albumin, in the presence or absence of GHRH agonist peptides P-20356 and P-27409. After 6 to 24 hours, tube formation potential was quantified in each sample by measuring the number and length of tubes formed using Image J Software (NIH)."}, "[5]": {"conditions": "fraction 1 (P-20356)/21 (JI-38)"}, "[6]": {"conditions": "fraction 2 (P-20356)/22 (JI-38)"}, "[7]": {"conditions": "fraction 3 (P-20356)/23 (JI-38)"}, "[8]": {"conditions": "fraction 4 (P-20356)/24 (JI-38)"}, "[9]": {"conditions": "fraction 5 (P-20356)/25 (JI-38)"}},
  "note": "Non-standard residues stand in square brackets, D forms with d. Residues, ends and D or L forms follow the SMILES beside them. *: point of attachment. NMeY = CN[C@@H](Cc1ccc(O)cc1)C(=O)O; Agmatine = N=C(N)NCCCCN*; Nle = CCCC[C@H](N)C(=O)O; Orn = NCCC[C@H](N)C(=O)O; Abu = CC[C@H](N)C(=O)O",
  "data": [
    {"smiles": "CCCC[C@H](NC(=O)[C@@H](NC(=O)[C@H](CC(=O)O)NC(=O)[C@H](CCC(N)=O)NC(=O)[C@H](CC(C)C)NC(=O)[C@H](CC(C)C)NC(=O)[C@H](CCCN)NC(=O)[C@H](CCCNC(=N)N)NC(=O)[C@H](C)NC(=O)[C@H](CO)NC(=O)[C@H](CC(C)C)NC(=O)[C@H](CCC(N)=O)NC(=O)[C@H](CC)NC(=O)[C@H](CC(C)C)NC(=O)[C@@H](NC(=O)[C@H](CCCN)NC(=O)[C@H](CCCNC(=N)N)NC(=O)[C@H](Cc1ccc(O)cc1)NC(=O)[C@H](CO)NC(=O)[C@H](CCC(N)=O)NC(=O)[C@@H](NC(=O)[C@H](Cc1ccccc1)NC(=O)[C@@H](NC(=O)[C@H](C)NC(=O)[C@H](CC(=O)O)NC(=O)[C@H](C)NC(=O)[C@H](Cc1ccc(O)cc1)NC)[C@@H](C)CC)[C@@H](C)O)C(C)C)[C@@H](C)CC)C(=O)N[C@@H](CC(=O)O)C(=O)NCCCCNC(=N)N", "note": "[Peptide P-20356, [N—Me-Tyr^1, Gln^8, Orn^12, Abu^15, Orn^21, Nle^27, Asp^28, Agm^29]hGHRH(1-29) NH2] (H-[NMeY]ADAIFTQSYR[Orn]VL[Abu]QLSAR[Orn]LLQDI[Nle]D-Agmatine)", "values": [
      {"measurement": "GH-releasing potency in vitro, times more potent than JI-38", "setting": "[1]; superfused rat pituitary cells", "result": "about 3"},
      {"measurement": "GH Response (ng/ml), Average", "setting": "[1]; [5]", "result": 52.45, "unit": "ng/mL"},
      {"measurement": "GH Response (ng/ml), column 1", "setting": "[1]; [5]", "result": 49.98, "unit": "ng/mL"},
      {"measurement": "GH Response (ng/ml), column 2", "setting": "[1]; [5]", "result": 54.99, "unit": "ng/mL"},
      {"measurement": "GH Response (ng/ml), column 3", "setting": "[1]; [5]", "result": 52.37, "unit": "ng/mL"},
      {"measurement": "GH Response (ng/ml), Average", "setting": "[1]; [6]", "result": 337.48, "unit": "ng/mL"},
      {"measurement": "GH Response (ng/ml), column 1", "setting": "[1]; [6]", "result": 310.58, "unit": "ng/mL"},
      {"measurement": "GH Response (ng/ml), column 2", "setting": "[1]; [6]", "result": 325.76, "unit": "ng/mL"},
      {"measurement": "GH Response (ng/ml), column 3", "setting": "[1]; [6]", "result": 376.11, "unit": "ng/mL"},
      {"measurement": "GH Response (ng/ml), Average", "setting": "[1]; [7]", "result": 556.46, "unit": "ng/mL"},
      {"measurement": "GH Response (ng/ml), column 1", "setting": "[1]; [7]", "result": 491.01, "unit": "ng/mL"},
      {"measurement": "GH Response (ng/ml), column 2", "setting": "[1]; [7]", "result": 602.1, "unit": "ng/mL"},
      {"measurement": "GH Response (ng/ml), column 3", "setting": "[1]; [7]", "result": 576.26, "unit": "ng/mL"},
      {"measurement": "GH Response (ng/ml), Average", "setting": "[1]; [8]", "result": 334.99, "unit": "ng/mL"},
      {"measurement": "GH Response (ng/ml), column 1", "setting": "[1]; [8]", "result": 399.95, "unit": "ng/mL"},
      {"measurement": "GH Response (ng/ml), column 2", "setting": "[1]; [8]", "result": 270.02, "unit": "ng/mL"},
      {"measurement": "GH Response (ng/ml), Average", "setting": "[1]; [9]", "result": 197.91, "unit": "ng/mL"},
      {"measurement": "GH Response (ng/ml), column 1", "setting": "[1]; [9]", "result": 200.64, "unit": "ng/mL"},
      {"measurement": "GH Response (ng/ml), column 2", "setting": "[1]; [9]", "result": 195.18, "unit": "ng/mL"},
      {"measurement": "Relative potency, 5 min", "setting": "GH release [2]; 5 min, JI-38 = 1", "result": 1.17},
      {"measurement": "Relative potency, 15 min", "setting": "GH release [2]; 15 min, JI-38 = 1", "result": 1.26},
      {"measurement": "Serum GH level at selected time after injection (ng/ml), 0 min", "setting": "GH release [2]; dose 1 μg/kg, 0 min, mean ± SEM", "result": "37.8 ± 5.7", "unit": "ng/mL"},
      {"measurement": "Serum GH level at selected time after injection (ng/ml), 5 min", "setting": "GH release [2]; dose 1 μg/kg, 5 min, mean ± SEM", "result": "632 ± 110", "unit": "ng/mL"},
      {"measurement": "Serum GH level at selected time after injection (ng/ml), 15 min", "setting": "GH release [2]; dose 1 μg/kg, 15 min, mean ± SEM", "result": "250 ± 58.1", "unit": "ng/mL"},
      {"measurement": "GH releasing potency in vivo relative to JI-38 (=1)", "setting": "GH release [3]; 5 min after", "result": 1.07},
      {"measurement": "GH releasing potency in vivo relative to JI-38 (=1)", "setting": "GH release [3]; 15 min after", "result": 0.91},
      {"measurement": "GH releasing potency in vivo relative to JI-38 (=1)", "setting": "GH release [3]; 30 min after", "result": 1.22},
      {"measurement": "Relative affinity (Binding potency) vs GHRH", "setting": "GHRH receptor; GHRH(1-29) = 1, Table 5", "result": 406.0},
      {"measurement": "Relative affinity (Binding potency) vs JI-38", "setting": "GHRH receptor; JI-38 = 1, Table 5", "result": 171},
      {"measurement": "Tube formation", "setting": "[4]", "result": "formed tube-like structures similar to wildtype MSCs"}
    ]},
    {"smiles": "CCCC[C@H](NC(=O)[C@@H](NC(=O)[C@H](CC(=O)O)NC(=O)[C@H](CCC(N)=O)NC(=O)[C@H](CC(C)C)NC(=O)[C@H](CC(C)C)NC(=O)[C@H](CCCN)NC(=O)[C@H](CCCNC(=N)N)NC(=O)[C@H](C)NC(=O)[C@H](CO)NC(=O)[C@H](CC(C)C)NC(=O)[C@H](CCC(N)=O)NC(=O)[C@H](CC)NC(=O)[C@H](CC(C)C)NC(=O)[C@@H](NC(=O)[C@H](CCCN)NC(=O)[C@H](CCCNC(=N)N)NC(=O)[C@H](Cc1ccc(O)cc1)NC(=O)[C@H](CO)NC(=O)[C@H](CC(N)=O)NC(=O)[C@@H](NC(=O)[C@H](Cc1ccccc1)NC(=O)[C@@H](NC(=O)[C@H](C)NC(=O)[C@H](CC(=O)O)NC(=O)[C@@H](C)NC(=O)[C@H](Cc1ccc(O)cc1)NC)[C@@H](C)CC)[C@@H](C)O)C(C)C)[C@@H](C)CC)C(=O)N[C@@H](CC(=O)O)C(=O)N[C@@H](CCCNC(=N)N)C(=O)NC", "note": "[Peptide P-27409, [N—Me-Tyr^1, D-Ala^2, Orn^12, Abu^15, Orn^21, Nle^27, Asp^28]hGHRH(1-29)NH—CH3] (H-[NMeY][dA]DAIFTNSYR[Orn]VL[Abu]QLSAR[Orn]LLQDI[Nle]DR-NHMe)", "values": [
      {"measurement": "Tube formation", "setting": "[4]", "result": "formed tube-like structures similar to wildtype MSCs"}
    ]}
  ]
}
